Experimental data from ChEMBL document CHEMBL2046410, “Computational design and discovery of "minimally structured" hERG blockers” (J Med Chem, 2012).

These compounds were tested against Voltage-gated inwardly rectifying potassium channel KCNH2 (Homo sapiens, UniProt Q12809) (assay: Inhibition of human ERG expressed in HEK cells by patch clamp assay). Conditions: read-out: IC50.
Assay type: cell-based, HEK293

Sequence of Voltage-gated inwardly rectifying potassium channel KCNH2 (Q12809 whole entry): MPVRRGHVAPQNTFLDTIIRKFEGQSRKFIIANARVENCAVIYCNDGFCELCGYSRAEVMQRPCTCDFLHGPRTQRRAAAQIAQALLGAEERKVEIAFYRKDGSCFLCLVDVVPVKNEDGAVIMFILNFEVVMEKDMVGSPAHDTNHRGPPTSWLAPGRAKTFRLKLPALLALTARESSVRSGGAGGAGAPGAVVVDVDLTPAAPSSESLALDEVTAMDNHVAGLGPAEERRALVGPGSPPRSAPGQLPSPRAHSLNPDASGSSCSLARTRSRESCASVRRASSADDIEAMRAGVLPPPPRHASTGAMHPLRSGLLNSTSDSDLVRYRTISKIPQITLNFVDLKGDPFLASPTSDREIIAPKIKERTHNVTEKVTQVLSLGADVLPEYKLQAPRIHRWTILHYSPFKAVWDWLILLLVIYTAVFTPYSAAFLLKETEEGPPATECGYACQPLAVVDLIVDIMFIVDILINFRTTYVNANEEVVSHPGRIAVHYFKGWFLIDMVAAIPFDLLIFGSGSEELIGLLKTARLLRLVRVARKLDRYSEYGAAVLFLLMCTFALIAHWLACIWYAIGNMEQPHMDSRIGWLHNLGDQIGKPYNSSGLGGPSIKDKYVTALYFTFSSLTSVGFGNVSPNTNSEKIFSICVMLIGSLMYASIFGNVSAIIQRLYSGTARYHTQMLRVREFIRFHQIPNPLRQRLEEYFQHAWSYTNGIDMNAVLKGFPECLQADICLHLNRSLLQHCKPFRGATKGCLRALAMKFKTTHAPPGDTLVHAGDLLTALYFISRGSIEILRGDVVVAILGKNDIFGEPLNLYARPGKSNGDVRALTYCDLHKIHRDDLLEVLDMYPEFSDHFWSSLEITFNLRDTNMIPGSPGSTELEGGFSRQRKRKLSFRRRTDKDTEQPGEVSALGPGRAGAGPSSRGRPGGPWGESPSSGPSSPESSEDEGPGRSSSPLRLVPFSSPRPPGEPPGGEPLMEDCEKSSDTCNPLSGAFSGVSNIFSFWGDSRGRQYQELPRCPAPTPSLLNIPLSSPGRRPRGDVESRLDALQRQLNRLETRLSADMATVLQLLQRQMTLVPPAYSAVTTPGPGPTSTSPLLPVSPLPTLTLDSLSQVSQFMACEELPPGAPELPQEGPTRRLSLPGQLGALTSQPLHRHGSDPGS

Row | SMILES | IC50
1 | c1ccc(CCNCCC(c2ccccc2)c2ccccc2)cc1 | 2790 nM
2 | c1ccc(CCCNCCC(c2ccccc2)c2ccccc2)cc1 | 17 nM
3 | c1ccc(CCCNCCN(c2ccccc2)c2ccccc2)cc1 | 580 nM
4 | Fc1ccc(N(CCNCCCc2ccccc2)c2ccc(F)cc2)cc1 | 2.4 nM
5 | O=C(Cc1ccccc1)NCCN(c1ccccc1)c1ccccc1 | 7860 nM
6 | O=C(CCc1ccccc1)NCCN(c1ccc(F)cc1)c1ccc(F)cc1 | 192 nM

Same assay, conditions: read-out: pIC50 (converted)

Row | SMILES | IC50
7 | c1ccc(CCNCCC(c2ccccc2)c2ccccc2)cc1 | 3160 nM
